In patent publication US11672753B2, “Composition for sebum control and pore minimizing” (AMOREPACIFIC CORPORATION, priority 2017, dated 2023):

Experiments:
[1] = tested on: HaCaT keratinocytes and human sebaceous gland cells; assay: Evaluation of sebum production inhibitory activity (Oil Red O staining of triglycerides); assay type: cell-based; settings: retinol 0.3 ppm (comparison); one day
Description: In order to efficiently evaluate the sebum production inhibitory activity of the plant extracts of the present disclosure, sebaceous gland cells and keratinocytes were used together, and an environment in vitro model similar to that of human sebaceous glands of the hair was used. HaCaT (ATCC, Va., USA), keratinocytes (Cellprogen, Calif., USA) cells and human sebaceous gland cells were inoculated into a 24-well culture plate at 3.75×10^4 cells and 6.0×10^4 cells, respectively. After inoculation, it was allowed to stand for one day so that the cells adhered to the bottom of the culture plate. At this time, 10% of fetal bovine serum (JRH Bioscience, Tokyo, Japan), […] of streptomycin (the above two reagents, GIBCO, Milan, Italy) were added to DMEM medium (Invitrogen, Carlsbad, Calif.) and used as a medium. After one day, the cells were treated with 50 μM of linoleic acid, 50 μM of arachidonic acid, or 10 nM of dihydrotestosterone, as a stimulating source for causing seborrheic skin inflammation. […] After one day, the amount of triglycerides produced in the cells was measured using Oil Red O staining. […] Then, the […], and the absorbance was measured at 520 nm using a spectrophotometer for quantification. […]

[2] = tested on: procollagen-I in human fibroblasts; assay: Evaluation of procollagen-I production activity (ELISA of culture solution); assay type: cell-based; settings: TGF-β1 0.005 ppm (comparison); two days after treatment
Description: An enzyme-linked immunosorbent assay (ELISA) method was used to confirm the amount of procollagen-I produced by the plant extracts of the present disclosure (Youngren et al., 1999). Since procollagen-I is a substance secreted out of cells, the culture solution of the fibroblasts treated with the samples was collected and applied to the experiment as a measurement method for confirming the expression change using the cell culture solution.
Specifically, human fibroblasts (Cell biologics, IL, USA) were inoculated into a 24-well culture plate at 2.5×10^4 cells. After inoculation, it was allowed to stand for one day so that the cells adhered to the bottom of the culture plate. At this time, 2% of low serum growth supplement (LSGS; Thermo Fisher, Mass., USA), […] of streptomycin (the above two reagents, GIBCO, Milan, Italy) were added to 106 medium (Thermo Fisher, Mass., USA) and used as a medium. Each plant extract obtained in Reference Examples 1 to 7 in the experimental group was dissolved in DMSO to make a 1% solution, and then diluted in DMEM medium, and treated to a final concentration of 50 ppm. In addition, for comparison, TGF-β1, known to have the ability to produce procollagen-I, was treated at a concentration of 0.005 ppm instead of the plant extracts. Two days after the treatment with the samples, the production of procollagen-I was measured. […]

Row | Molecule | Inhibition rate of sebum production (%) [1] | Production rate of Procollagen-I (%) [2]
1 | CC1=C(/C=C/C(C)=C/C=C/C(C)=C/CO)C(C)(C)CCC1 [Retinol] | 42.1% | –
2 | TGF-β1: known to have the ability to produce procollagen-I; comparison | – | 52.1%
